From patent US20100249408A1, “USE OF NOVEL COMPOUND HAVING AFFINITY FOR AMYLOID, AND PROCESS FOR PRODUCTION OF THE SAME” (NIHON MEDI-PHYSICS CO., LTD., priority 2007, published 2010)
Like-named read-outs stand apart in the source and are kept apart here.

Tests used:
[1] = molecular target: T1, intracerebral amyloid (aggregated Aβ1-42 injected into amygdaloid nucleus) (Homo sapiens, UniProt P05067); assay: ex vivo autoradiogram using rats of amyloid injected model (Examples II-13, II-14); design: species or system male Wistar rat; conditions: rat with Aβ1-42 amyloid suspension in one amygdaloid nucleus, tail vein, brain removed 60 minutes after injection
T1 construct: Aβ1-42 (manufactured by Peptide Institute) was dissolved in phosphate buffer (pH 7.4); purchased Peptide Institute
T1 sequence (P05067 672-713): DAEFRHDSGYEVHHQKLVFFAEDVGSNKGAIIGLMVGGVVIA
Method: As a control, 2.5 μL of a phosphate buffered physiological saline solution (pH 7.4) was injected into an amygdaloid nucleus on the other side of the rat. The rats were examined 1 day after the injection of the amyloid suspension and the phosphate buffered physiological saline solution (pH 7.4).
(4) Brain was removed 60 minutes after the injection to prepare a brain slice of 10 μm in thickness with a microtome (type: CM3050S, manufactured by LEICA).

[2] = Partition coefficient based on the octanol extraction method (logPoctanol); conditions: octanol / 10 mmol/L phosphate buffer (pH 7.4), radioactivity count
Method: 10 μL each of the prepared sample solution was respectively added to 2 mL of octanol, further, 2 mL of 10 mmol/L phosphate buffer (pH 7.4) was added, and stirred for 30 seconds. […] Using the obtained radioactivity count, log Poctanol was calculated in accordance with the equation (2).

[3] = Transferability into brain and clearance (Examples II-11, II-12, Comparative Example II-1); conditions: rats, intravenous injection, three animals
Method: Using the Compounds 10 and 11, a time course change of radioactive accumulation in brain of male Wistar rats (7-week old) was measured.
The rats were sacrificed by bleeding from abdominal artery, and brains were removed and subjected to measurement of mass of brains and further subjected to measurement of radioactivity (hereinafter referred to as A in this Example) with a single channel analyzer (detector type: SP-20 manufactured by OHYO KOKEN KOGYO Co., Ltd.) 2, 5, 30 and 60 minutes after the injection. Also, radioactivity (hereinafter referred to as B in this Example) of the rest of the whole body was measured in the same manner as above. Using these measurement results, radioactive accumulation per unit weight of brain (% ID/g) at the respective time points were calculated in accordance with the following formula (4).
Three animals were used for experiment at the respective time points.

[4] = International Publication No. WO03/106439; cited from earlier work
[5] = [125I]-labeled compounds, normal mice; cited from earlier work
[6] = [11C]-labeled, rats; cited from earlier work

## Oc1ccc(-c2cn3cc([123I])ncc3n2)cc1 [Compound 10, [^123I]-2-(4′-hydroxyphenyl)-6-iodoimidazo[1,2-a]pyrazine]
[1]
  Accumulation of radioactivity at intracerebral amyloid (ex vivo autoradiogram): a marked accumulation of radioactivity was observed in the amygdaloid nucleus on the side to which the amyloid suspension was injected
[2]
  logPoctanol value: 2.3
[3]; after 2 min.
  Radioactive accumulation in brain per unit weight: 0.62 % ID/g
[3]; after 5 min.
  Radioactive accumulation in brain per unit weight: 0.33 % ID/g
[3]; after 30 min.
  Radioactive accumulation in brain per unit weight: 0.08 % ID/g
[3]; after 60 min.
  Radioactive accumulation in brain per unit weight: 0.02 % ID/g

## Oc1ccc(-c2cn3cccc([123I])c3n2)cc1 [Compound 11, [^123I]-2-(4′-hydroxyphenyl)-8-iodoimidazo[1,2-a]pyridine]
[1]
  Accumulation of radioactivity at intracerebral amyloid (ex vivo autoradiogram): a marked accumulation of radioactivity was observed in the amygdaloid nucleus on the side to which the amyloid suspension was injected
[2]
  logPoctanol value: 3.0
[3]; after 2 min.
  Radioactive accumulation in brain per unit weight: 0.65 % ID/g
[3]; after 5 min.
  Radioactive accumulation in brain per unit weight: 0.43 % ID/g
[3]; after 30 min.
  Radioactive accumulation in brain per unit weight: 0.09 % ID/g
[3]; after 60 min.
  Radioactive accumulation in brain per unit weight: 0.03 % ID/g

## CC(=C(C#N)C#N)c1ccc2cc(N(C)CCF)ccc2c1 [FDDNP, 2-(1-{6-[(2-fluoroethyl)(methyl)amino]-2-naphthyl}ethylidene)malononitrile]
[4]
  Result in reverse mutation test: positive

## CN(C)c1ccc(-c2nc3ccc(I)cc3o2)cc1 [IBOX, 6-iodo-2-[4′-(N,N-dimethylamino)phenyl]benzoxazole]
[5]
  Clearance from normal tissues: insufficient in clearance from normal tissues

## CN(C)c1ccc(-c2cn3cc(I)ccc3n2)cc1 [IMPY, 6-iodo-2-[4′-(N,N-dimethylamino)phenyl]imidazo[1,2-a]pyridine]
[4]
  Result in reverse mutation test: positive

## CNc1ccc(/C=C/c2ccc(O)cc2)cc1 [SB-13, (E)-4-methylamino-4′-hydroxystilbene]
[6]
  Clearance from normal tissues: it cannot be said that the clearance is sufficiently fast

## CN(C)c1ccc(-c2nc3ccc(I)cc3s2)cc1 [TZDM, 6-iodo-2-[4′-(N,N-dimethylamino)phenyl]benzothiazole]
[5]
  Clearance from normal tissues: insufficient in clearance from normal tissues

## CN(C)c1ccc(/C=C/c2ccc(I)cc2)cc1 [m-I-SB, (E)-4-dimethylamino-4′-iodostilbene]
[5]
  Clearance from normal tissues: insufficient in clearance from normal tissues
